IC50 data for 50 molecules are collected here from patent publication US12428423B2, “1H-imidazo[4,5-h]quinazoline compound as protein kinase inhibitor” (SHENGKE PHARMACEUTICALS (JIANGSU) LTD., priority 2017, dated 2025).

One test has as its target CDK6/cyclin D1 (Homo sapiens (Human), UniProt Q00534). The experiment in a line: Biochemical kinase inhibitory assay, CDK6/cyclin D1. Particulars: in the presence of 10 μM ATP. Here is the method: Potency determination in the biochemical kinase inhibitory assay. Kinase activity assay and IC50 determination. […] The kinase reaction was initiated by the addition of 1 μg (1.5 μM) of recombinant retinoblastoma protein, 5 μM ATP and 10μ Ci γ-32P-ATP. The reaction was incubated at 30° C. for 20 minutes, and the reaction was stopped by the addition of 2× Laemmli sample buffer, heated at 95° C. for three minutes, and dissolved in 12% acrylamide SDS-PAGE for autoradiography. The corresponding phosphorylated substrate protein bands were quantified using a densitometer (Bio-Rad). […] The compounds disclosed herein were tested in a similar manner for their inhibitory activities against CDK6/cyclin D1, CDK2/cyclin A, CDK5/cyclin P25, CDK9/cyclin Ti, CDK7/cyclin H and CDK19/cyclin C. […] The reaction took place in the presence of 10 μM ATP.

For another test, the target named is CDK4/cyclin D1 (Homo sapiens (Human), UniProt P11802). The experiment in a line: Biochemical kinase inhibitory assay, CDK4/cyclin D1. Particulars: recombinant CDK4/cyclin D1; in the presence of 10 μM ATP. How it is done:
Potency determination in the biochemical kinase inhibitory assay. Kinase activity assay and IC50 determination. […] The kinase reaction was initiated by the addition of 1 μg (1.5 μM) of recombinant retinoblastoma protein, 5 μM ATP and 10μ Ci γ-32P-ATP. The reaction was incubated at 30° C. for 20 minutes, and the reaction was stopped by the addition of 2× Laemmli sample buffer, heated at 95° C. for three minutes, and dissolved in 12% acrylamide SDS-PAGE for autoradiography. The corresponding phosphorylated substrate protein bands were quantified using a densitometer (Bio-Rad). […] The reaction took place in the presence of 10 μM ATP.

Molecules are shown by their SMILES. Structures can show the parent of a compound that is named as a salt.

CDK4/cyclin D1, sequence (P11802 whole entry): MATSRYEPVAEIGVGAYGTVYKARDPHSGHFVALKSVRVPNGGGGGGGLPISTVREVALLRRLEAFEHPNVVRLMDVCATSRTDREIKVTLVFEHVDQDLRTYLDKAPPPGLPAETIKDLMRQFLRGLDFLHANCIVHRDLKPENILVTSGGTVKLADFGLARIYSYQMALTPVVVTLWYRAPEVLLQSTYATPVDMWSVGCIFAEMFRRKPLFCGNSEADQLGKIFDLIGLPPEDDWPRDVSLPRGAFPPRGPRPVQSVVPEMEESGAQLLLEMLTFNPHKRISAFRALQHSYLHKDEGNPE
CDK4/cyclin D1, sequence (P24385 whole entry partner): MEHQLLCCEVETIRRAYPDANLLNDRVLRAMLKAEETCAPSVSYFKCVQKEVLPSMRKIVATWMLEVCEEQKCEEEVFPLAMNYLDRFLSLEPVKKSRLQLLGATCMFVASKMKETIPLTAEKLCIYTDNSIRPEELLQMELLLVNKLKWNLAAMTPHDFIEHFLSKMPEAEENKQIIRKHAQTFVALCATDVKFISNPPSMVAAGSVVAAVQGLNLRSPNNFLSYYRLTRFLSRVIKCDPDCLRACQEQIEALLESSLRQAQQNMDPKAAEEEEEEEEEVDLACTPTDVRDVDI
CDK6/cyclin D1, sequence (Q00534 whole entry): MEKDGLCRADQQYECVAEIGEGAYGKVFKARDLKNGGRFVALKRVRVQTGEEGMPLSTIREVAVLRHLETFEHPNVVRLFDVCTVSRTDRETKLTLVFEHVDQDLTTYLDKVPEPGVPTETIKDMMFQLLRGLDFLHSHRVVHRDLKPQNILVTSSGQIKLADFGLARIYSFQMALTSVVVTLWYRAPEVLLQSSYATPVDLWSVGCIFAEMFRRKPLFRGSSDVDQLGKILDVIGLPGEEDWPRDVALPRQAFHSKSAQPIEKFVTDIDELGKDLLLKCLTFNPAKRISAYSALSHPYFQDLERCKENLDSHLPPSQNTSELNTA
CDK6/cyclin D1, sequence (P24385 whole entry partner): as the sequence (P24385 whole entry partner) above

By IC50 is commonly meant the concentration needed to halve the response being measured. As for `CC(C)n1cnc2ccc3cnc(Nc4ccc(N5CCNCC5)cn4)nc3c21` [Compound I-1, 1-Isopropyl-N-(5-(piperazin-1-yl)pyridin-2-yl)-1H-imidazo[4,5-h]quinazolin-8-amine hydrochloride], the IC50 at CDK6/cyclin D1 and on CDK4/cyclin D1 was less than 0.002 µM each time.
In the case of `CC(C)n1cnc2ccc3cnc(Nc4ccc(N5CCN(C)CC5)cn4)nc3c21` [Compound I-2, 1-isopropyl-N-(5-(4-methylpiperazin-1-yl)pyridin-2-yl)-1H-imidazo[4,5-h]quinazolin-8-amine], the IC50 at CDK6/cyclin D1 and at CDK4/cyclin D1 was 0.002 to 0.01 µM each time.
For the molecule `Cc1cc(Nc2ncc3ccc4ncn(C(C)C)c4c3n2)ncc1N1CCN(C)CC1` [Compound I-3], the IC50 on CDK6/cyclin D1 and on CDK4/cyclin D1 was 0.002 to 0.01 µM in each case.
As for `Cc1nc(Nc2ncc3ccc4ncn(C(C)C)c4c3n2)ccc1N1CCN(C)CC1` [Compound I-4], the half-maximal inhibitory concentration (IC50) at CDK6/cyclin D1 and on CDK4/cyclin D1 was 0.002 to 0.01 µM each time.
For `CCN1CCN(c2ccc(Nc3ncc4ccc5ncn(C(C)C)c5c4n3)nc2)CC1` [Compound I-5], the half-maximal inhibitory concentration (IC50) at CDK6/cyclin D1 and on CDK4/cyclin D1 was less than 0.002 µM throughout.
In the case of `CCN1CCN(c2cnc(Nc3ncc4ccc5ncn(C(C)C)c5c4n3)cc2C)CC1` [Compound I-6], the IC50 on CDK6/cyclin D1 and at CDK4/cyclin D1 was 0.002 to 0.01 µM throughout.
For the molecule `CCN1CCN(c2ccc(Nc3ncc4ccc5ncn(C(C)C)c5c4n3)nc2C)CC1` [Compound I-7], the IC50 on CDK6/cyclin D1 and on CDK4/cyclin D1 was 0.002 to 0.01 µM throughout.
Take `Cc1cc(Nc2ncc3ccc4ncn(C(C)C)c4c3n2)ncc1N1CCNCC1` [Compound I-8]: the IC50 at CDK6/cyclin D1 and on CDK4/cyclin D1 was less than 0.002 µM in each case.
For `Cc1nc(Nc2ncc3ccc4ncn(C(C)C)c4c3n2)ccc1N1CCNCC1` [Compound I-9], the IC50 at CDK6/cyclin D1 and on CDK4/cyclin D1 was less than 0.002 µM each time.
For the molecule `CC(C)n1cnc2ccc3cnc(Nc4ccc(N5CCN[C@@H](C)C5)cn4)nc3c21` [Compound I-10], the IC50 at CDK6/cyclin D1 and on CDK4/cyclin D1 was 0.002 to 0.01 µM throughout.
Turning to `CC(C)n1cnc2ccc3cnc(Nc4ccc(N5CCNC(C)(C)C5)cn4)nc3c21` [Compound I-11], the IC50 on CDK6/cyclin D1 and on CDK4/cyclin D1 was 0.002 to 0.01 µM in each case.
As for `CC(C)n1cnc2ccc3cnc(Nc4ccc(N5C[C@@H](C)N[C@@H](C)C5)cn4)nc3c21` [Compound I-12], the half-inhibitory concentration (IC50) on CDK6/cyclin D1 and at CDK4/cyclin D1 was 0.002 to 0.01 µM each time.
In the case of `CC(C)n1cnc2ccc3cnc(Nc4cc(F)c(N5CCNCC5)cn4)nc3c21` [Compound I-13], the IC50 on CDK6/cyclin D1 and on CDK4/cyclin D1 was 0.01 to 0.05 µM throughout.
Consider `CC(C)n1cnc2ccc3cnc(Nc4ccc(N5CCCNCC5)cn4)nc3c21` [Compound I-14], for which the IC50 at CDK6/cyclin D1 and at CDK4/cyclin D1 was 0.01 to 0.05 µM each time.
In the case of `CC(C)n1cnc2ccc3cnc(Nc4ccc(N5CCN(CCO)CC5)cn4)nc3c21` [Compound I-15], the 50% inhibitory concentration (IC50) on CDK6/cyclin D1 and at CDK4/cyclin D1 was 0.01 to 0.05 µM each time.
For `CC(C)n1cnc2ccc3cnc(Nc4ccc(N5CCCCC5)cn4)nc3c21` [Compound I-16], the IC50 at CDK6/cyclin D1 and at CDK4/cyclin D1 was 0.01 to 0.05 µM in each case.
As to `CC(C)n1cnc2ccc3cnc(Nc4ccc(N5CCC(O)CC5)cn4)nc3c21` [Compound I-17], the IC50 on CDK6/cyclin D1 and at CDK4/cyclin D1 was 0.01 to 0.05 µM each time.
On to `CC(C)n1cnc2ccc3cnc(Nc4ccc(N5CCC(CCCO)CC5)cn4)nc3c21` [Compound I-18], for which the IC50 on CDK6/cyclin D1 and on CDK4/cyclin D1 was 0.01 to 0.05 µM each time.
For the molecule `CC(C)n1cnc2ccc3cnc(Nc4ccc(N5CCC(N(C)C)CC5)cn4)nc3c21` [Compound I-19], the IC50 at CDK6/cyclin D1 and at CDK4/cyclin D1 was 0.01 to 0.05 µM in each case.
Take `CC(C)n1cnc2ccc3cnc(Nc4ccc(N5CCC(N(C)C)CC5)c(F)n4)nc3c21` [Compound I-20]: the IC50 at CDK6/cyclin D1 and on CDK4/cyclin D1 was 0.01 to 0.05 µM in each case.
On to `CC(C)n1cnc2ccc3cnc(Nc4ccc(N5CCC(N)CC5)cn4)nc3c21` [Compound I-21], for which the IC50 at CDK6/cyclin D1 and on CDK4/cyclin D1 was 0.01 to 0.05 µM each time.
`CC(C)n1cnc2ccc3cnc(Nc4ccc(N5CCC(N)C5)cn4)nc3c21` (stereo not shown) [Compound I-22]: the IC50 on CDK6/cyclin D1 and at CDK4/cyclin D1 was 0.01 to 0.05 µM in each case.
Consider `CC(C)n1cnc2ccc3cnc(Nc4ccc(N5CCOCC5)cn4)nc3c21` [Compound I-23], for which the IC50 on CDK6/cyclin D1 and at CDK4/cyclin D1 was less than 0.002 µM each time.
`Cc1cc(Nc2ncc3ccc4ncn(C(C)C)c4c3n2)ncc1N1CCOCC1` [Compound I-24]: the IC50 on CDK6/cyclin D1 and at CDK4/cyclin D1 was 0.002 to 0.01 µM throughout.
On to `Cc1nc(Nc2ncc3ccc4ncn(C(C)C)c4c3n2)ccc1N1CCOCC1` [Compound I-25], for which the IC50 on CDK6/cyclin D1 and on CDK4/cyclin D1 was 0.002 to 0.01 µM in each case.
For the molecule `CC1CN(c2ccc(Nc3ncc4ccc5ncn(C(C)C)c5c4n3)nc2)CCO1` (stereo not shown) [Compound I-26], the half-maximal inhibitory concentration (IC50) on CDK6/cyclin D1 and on CDK4/cyclin D1 was 0.002 to 0.01 µM throughout.
Regarding `CC(C)n1cnc2ccc3cnc(Nc4ccc(N5C[C@@H](C)O[C@@H](C)C5)cn4)nc3c21` [Compound I-27], the IC50 at CDK6/cyclin D1 and on CDK4/cyclin D1 was 0.002 to 0.01 µM in each case.
With `CC(C)n1cnc2ccc3cnc(Nc4ccc(N5CCC6(CCNCC6)C5)cn4)nc3c21` [Compound I-28], the IC50 on CDK6/cyclin D1 and at CDK4/cyclin D1 was 0.01 to 0.05 µM in each case.
In the case of `CC(C)n1cnc2ccc3cnc(Nc4ccc(N5CCC6(CNC6)C5)cn4)nc3c21` [Compound I-29], the IC50 at CDK6/cyclin D1 and at CDK4/cyclin D1 was 0.01 to 0.05 µM each time.
Consider `CC(C)n1cnc2ccc3cnc(Nc4ccc(N5CC6(CNC6)C5)cn4)nc3c21` [Compound I-30], for which the IC50 at CDK6/cyclin D1 and at CDK4/cyclin D1 was 0.01 to 0.05 µM each time.
For the molecule `CC(C)n1cnc2ccc3cnc(Nc4ccc(N5CCC6(CC5)CNC6)cn4)nc3c21` [Compound I-31], the half-maximal inhibitory concentration (IC50) at CDK6/cyclin D1 and at CDK4/cyclin D1 was 0.01 to 0.05 µM each time.
For `CC(C)n1cnc2ccc3cnc(Nc4ccc(N5CC6(CCNCC6)C5)cn4)nc3c21` [Compound I-32], the concentration for half-maximal inhibition (IC50) at CDK6/cyclin D1 and at CDK4/cyclin D1 was 0.01 to 0.05 µM each time.
On to `CC(C)n1cnc2ccc3cnc(Nc4ccc(N5CCC6(CCC(=O)N6)CC5)cn4)nc3c21` [Compound I-33], for which the half-inhibitory concentration (IC50) at CDK6/cyclin D1 and on CDK4/cyclin D1 was 0.01 to 0.05 µM in each case.
For the molecule `CC(C)n1cnc2ccc3cnc(Nc4ccc(N5CCN(CCO)CC5)cc4)nc3c21` [Compound I-34], the IC50 on CDK6/cyclin D1 and on CDK4/cyclin D1 was 0.01 to 0.05 µM throughout.
Take `CC(C)n1cnc2ccc3cnc(Nc4ccc(N5CCNCC5)cc4F)nc3c21` [Compound I-35]: the IC50 on CDK6/cyclin D1 and at CDK4/cyclin D1 was 0.01 to 0.05 µM each time.
For the molecule `COc1cc(OCCN(C)C)ccc1Nc1ncc2ccc3ncn(C(C)C)c3c2n1` [Compound I-36], the IC50 at CDK6/cyclin D1 and on CDK4/cyclin D1 was 0.05 to 0.1 µM each time.
Turning to `COc1cc(OC2CCN(C)CC2)ccc1Nc1ncc2ccc3ncn(C(C)C)c3c2n1` [Compound I-37], the IC50 at CDK6/cyclin D1 and on CDK4/cyclin D1 was 0.05 to 0.1 µM each time.
Regarding `CC(C)n1cnc2ccc3cnc(Nc4ccc(N5CCC(CCCO)CC5)cc4)nc3c21` [Compound I-38], the half-maximal inhibitory concentration (IC50) at CDK6/cyclin D1 and on CDK4/cyclin D1 was 0.01 to 0.05 µM each time.
Turning to `COc1ccc2cc(Nc3ncc4ccc5ncn(C(C)C)c5c4n3)ccc2n1` [Compound I-39], the half-maximal inhibitory concentration (IC50) on CDK6/cyclin D1 and on CDK4/cyclin D1 was 0.05 to 0.1 µM throughout.
Take `COc1cc(C(=O)NC2CCN(C)CC2)ccc1Nc1ncc2ccc3ncn(C(C)C)c3c2n1` [Compound I-40]: the IC50 at CDK6/cyclin D1 and on CDK4/cyclin D1 was 0.05 to 0.1 µM each time.
Regarding `CC(C)N1CCN(c2ccc(Nc3ncc4ccc5ncn(C(C)C)c5c4n3)nn2)CC1` [Compound I-41], the IC50 on CDK6/cyclin D1 and at CDK4/cyclin D1 was 0.05 to 0.1 µM each time.
For `CCn1cnc2ccc3cnc(Nc4ccc(N5CCNCC5)cn4)nc3c21` [Compound I-42], the IC50 at CDK6/cyclin D1 and on CDK4/cyclin D1 was 0.01 to 0.05 µM each time.
Take `CCn1cnc2ccc3cnc(Nc4ccc(N5CCN(C)CC5)cn4)nc3c21` [Compound I-43]: the IC50 on CDK6/cyclin D1 and on CDK4/cyclin D1 was 0.01 to 0.05 µM throughout.
Consider `CCn1cnc2ccc3cnc(Nc4ccc(N5C[C@@H](C)O[C@@H](C)C5)cn4)nc3c21` [Compound I-44], for which the concentration for half-maximal inhibition (IC50) at CDK6/cyclin D1 and on CDK4/cyclin D1 was 0.01 to 0.05 µM throughout.
As to `CCn1cnc2ccc3cnc(Nc4ccc(N5CCOCC5)cn4)nc3c21` [Compound I-45], the IC50 at CDK6/cyclin D1 and on CDK4/cyclin D1 was 0.01 to 0.05 µM throughout.
With `CCn1cnc2ccc3cnc(Nc4ccc(N5CCOC(C)C5)cn4)nc3c21` (stereo not shown) [Compound I-46], the 50% inhibitory concentration (IC50) at CDK6/cyclin D1 and on CDK4/cyclin D1 was 0.01 to 0.05 µM in each case.
`c1cc(Nc2ncc3ccc4ncn(C5CC5)c4c3n2)ncc1N1CCNCC1` [Compound I-47]: the IC50 at CDK6/cyclin D1 and on CDK4/cyclin D1 was 0.002 to 0.01 µM each time.
For `Cc1cc(Nc2ncc3ccc4ncn(C5CC5)c4c3n2)ncc1N1CCNCC1` [Compound I-48], the half-maximal inhibitory concentration (IC50) on CDK6/cyclin D1 and on CDK4/cyclin D1 was 0.01 to 0.05 µM throughout.
For `c1cc(Nc2ncc3ccc4ncn(C5CC5)c4c3n2)ncc1N1CCOCC1` [Compound I-49], the IC50 at CDK6/cyclin D1 and at CDK4/cyclin D1 was 0.01 to 0.05 µM each time.
Consider `Cc1cc(Nc2ncc3ccc4ncn(C5CC5)c4c3n2)ncc1N1CCOCC1` [Compound I-50], for which the IC50 on CDK6/cyclin D1 and on CDK4/cyclin D1 was 0.01 to 0.05 µM in each case.
